Values joined by “and” are separate entries in the source; they are usually repeats but may differ in a detail not shown here. Equal entries are not always repeated.
Tests used:
[1] = system: Dahl salt-sensitive (Dahl-S) rats; test: Dahl salt-sensitive rat model: blood pressure by telemetry, area between curves (ABC); type: in vivo; conditions: oral, 0 to 72 hours
Procedure: Dahl Salt-Sensitive Rat Model
Dahl salt-sensitive (Dahl-S) were purchased from Harlan (Netherlands). The rats were housed by group during the acclimatization period and single-housed after implantation of the telemetry device. All animals were maintained under identical conditions and had free access to normal pelleted rat chow and water. Dahl salt-sensitive rats develop hypertension only upon exposure to salt intake. They were administered a high-salt (8%) chow diet (Purina series 5500). Five weeks after starting salt administration, a telemetry system was implanted under anaesthesia by inhalation of 2.5% isoflurane (in 70% O2+30% N2O). […]
The compounds were administered at least 2 weeks after telemetry system implantation. […] The acute effects of the compound of formula (I), the compound having PDE5-inhibitory properties and their combination on blood pressure were measured by collecting data at 5-minute intervals up to 72 h after oral administration. Hourly means of blood pressure were calculated for each rat. […] The two curves (blood pressure of the control period and blood pressure of the treatment period) were plotted together and the area between curves (ABC) from 0 to 72 hours was calculated. […]

[2] = system: spontaneously hypertensive rats (SHR); test: Spontaneously hypertensive rat model: blood pressure by telemetry, area between curves (ABC); type: in vivo; conditions: oral, 0 to 72 hours
Procedure: The compounds were administered at least 2 weeks after telemetry system implantation. The compound of formula (I) and the compound having PDE5-inhibitory properties were prepared in 5% arabic gum and administered by oral gavage. The acute effects of the compound of formula (I), the compound having PDE5-inhibitory properties and their combination on blood pressure were measured by collecting data at 5-minute intervals up to 72 h after oral administration. Hourly means of blood pressure were calculated for each rat. Each rat served as its own control, by using the blood pressure data of the last 24 hours before drug administration. The two curves (blood pressure of the control period and blood pressure of the treatment period) were plotted together and the area between curves (ABC) from 0 to 72 hours was calculated. The higher the ABC, the stronger the effect of the item tested for lowering blood pressure.
Spontaneously Hypertensive Rat Model
The SHR rats were purchased from Harlan (Netherlands).

For `CCCNS(=O)(=O)Nc1ncnc(OCCOc2ncc(Br)cn2)c1-c1ccc(Br)cc1` [compound of formula (I)], the “area between curves (ABC) of blood pressure, control period vs treatment period” value (“area between curves (ABC) … vs treatment period” below) ([1]; 0.3 mg/kg, higher ABC = stronger blood pressure lowering) was 256 and the “area between curves (ABC) … vs treatment period” value ([2]; 0.3 mg/kg) was 44 and 38.
With `CCCc1nn(C)c2c(=O)[nH]c(-c3cc(S(=O)(=O)N4CCN(C)CC4)ccc3OCC)nc12` [sildenafil] the “area between curves (ABC) … vs treatment period” value ([2]; 30 mg/kg) was 229.
With `CN1CC(=O)N2[C@H](c3ccc4c(c3)OCO4)c3[nH]c4ccccc4c3C[C@@H]2C1=O` [tadalafil] the “area between curves (ABC) … vs treatment period” value ([1]; 10 mg/kg) was 310 and the “area between curves (ABC) … vs treatment period” value ([2]; 10 mg/kg) was 286.

Source: patent US8268847B2, “Therapeutic compositions comprising a specific endothelin receptor antagonist and a PDE5 inhibitor” (Actelion Pharmaceuticals, Ltd., priority 2006, dated 2012)
